Data taken from US4001237A, “Oxazole, isoxazole, thiazole and isothiazole amides” (priority 1976, dated 1977).
Counter-ions that a name gives are not always drawn. Like-named read-outs stand apart in the source and are kept apart here. Each block holds one compound with its values, some of them ahead of it.

How the values were obtained:
[1] = tested on: spontaneous hypertensive rats; assay: Antihypertensive activity by oral administration to spontaneous hypertensive rats; assay type: in vivo, rat; conditions: for change in vivo at 1 mg/kg / change in vivo at 3 mg/kg / change in vivo at 10 mg/kg: Rattus norvegicus, read-out: Antihypertensive Activity % Blood Pressure Change
Experimental: (§1) In the following table, antihypertensive acitvity was determined by oral administration to spontaneous hypertensive rats, and the in vitro and in vivo α-adrenergic receptor blocking effect was determined by tests described following the table. In the in vitro test, the inhibition by the test drug of norepinephrine induced contractions of rat seminal vesicles was measured; and in the in vivo test, the inhibition by the test drug of norepinephrine induced pressor responses in anesthetized dogs was measured.

[2] = target: T1, α-adrenergic receptor (Rattus norvegicus, UniProt P43140); assay: Isolated rat seminal vesicle assay: inhibition of norepinephrine induced contractions; assay type: cell-based; conditions: relative to prazosin; test compound 10 nanograms/ml; shift of norepinephrine ED50, rat seminal vesicle
T1 construct: Seminal vesicles were removed and transfered to a shallow dish containing modified Tyrode's solution; from tissue; host or cells: isolated seminal vesicle of male Long Evans rats
T1 sequence (P43140 1-466): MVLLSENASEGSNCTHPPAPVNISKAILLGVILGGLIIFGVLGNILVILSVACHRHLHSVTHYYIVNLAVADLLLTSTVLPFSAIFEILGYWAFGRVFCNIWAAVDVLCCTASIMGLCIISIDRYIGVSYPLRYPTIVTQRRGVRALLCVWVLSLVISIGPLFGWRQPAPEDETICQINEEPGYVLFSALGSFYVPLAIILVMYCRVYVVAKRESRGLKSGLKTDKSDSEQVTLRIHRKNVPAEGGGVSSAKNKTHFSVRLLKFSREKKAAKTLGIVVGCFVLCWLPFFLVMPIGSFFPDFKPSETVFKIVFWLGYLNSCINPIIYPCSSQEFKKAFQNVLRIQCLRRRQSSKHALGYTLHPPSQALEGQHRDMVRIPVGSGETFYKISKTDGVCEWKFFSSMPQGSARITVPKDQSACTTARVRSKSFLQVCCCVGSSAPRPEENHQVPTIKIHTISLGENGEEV
Experimental: as §1
Dangan et al., Int. j. […] Lietch et al., Brit.
Male Long Evans rats weighing approximately 300 g. were sacrificed by a sharp blow on the head. Seminal vesicles were removed and transfered to a shallow dish containing modified Tyrode's solution. The vesicles were emptied of their contents by squeezing them gently with a pair of forceps. Silk thread (4-0) was attached to both ends of the vesicle and it was suspended in a 20 ml. muscle chamber containing modified oxygenated Tyrode's solution (g./liter: NaCl 8, KCl 0.2, CaCl2 0.26, NaHCO3 1, Na2 HPO4 0.575, glucose 0.5 and MgCl2 0.02). The bathing fluid was maintained at 37° C. with a thermostatically controlled isolated organ tissue bath. Contractions were recorded isometrically by means of a force displacement transducer and recordings were made with a Beckman RP Dynograph. Norepinephrine (NE) was added to the muscle chamber in volumes ranging from 0.1 to 0.4 ml. with a 1 ml. syringe attached to a 3 inch 20 gauge needle. NE and test compounds were dissolved in deionized water.
NE dose response curves were obtained alone and in the presence of test compounds. NE was allowed to remain in contact with the strip until a maximal contraction was obtained. The strip was then washed with the perfusion fluid for 15-30 seconds and the preparation was allowed to return to base line before a subsequent dose of NE was given. Increasing amounts of NE were injected into the bath in the same manner until a complete dose response was obtained.
The seminal vesicles used to obtain the control NE dose response were discarded and new preparations were placed in the tissue bath for evaluation of the test compound. The test compound was added directly to the perfusion fluid (10 nanograms/ml.) and the strips were allowed to remain in contact with the bathing media for at least 10 minutes before the NE dose response was determined. Seminal vesicles from the same rat were used for control and for test drug.
ED50 values for NE were obtained by regression analysis as described by Finney, Probit, Analysis, 2d Ed., Cambridge (1964). A minimum of 4 strips and at least 4 doses were employed to calculate the regression lines. The ED50 value is defined as the concentration of NE which produces a contraction equal to 50% of the maximal contraction.

[3] = tested on: α-adrenergic receptor; assay: Anesthetized dog assay for α-adrenergic blocking agents: inhibition of norepinephrine induced pressor responses; assay type: in vivo; conditions: relative to prazosin; test drug 3 mg./kg. iv; norepinephrine dose raising blood pressure by 50 mm. of Hg; anesthetized dogs
Experimental: as §1
Thus, blood pressure responses to norepinephrine (NE) in anesthetized dogs was used as a comparative assay for α-adrenergic receptor blocking properties of drugs.
Experiments were done on mongrel dogs anesthetized with sodium pentobarbital, 30 mg./kg. iv. The left femoral artery was cannulated to record aortic blood pressure and a femoral vein was cannulated for administration of drugs. All animals underwent a bilateral vagotomy. A norepinephrine dose-response curve was obtained by administering increasing doses of iv norepinephrine (0.01 - 1 μg./kg.). The test drug was then administered iv at 3 mg./kg. Approximately 30 minutes later a dose-response curve was again established for iv norepinephrine (0.01-10 μg./kg.).

[4] = dose 1 mg/kg, oral, spontaneous hypertensive rats
[5] = dose 3 mg/kg, oral, spontaneous hypertensive rats
[6] = dose 10 mg/kg, oral, spontaneous hypertensive rats
[7] = oral, spontaneous hypertensive rats

Compound: COc1cc2nc(N3CCN(C(=O)c4ccon4)CC3)nc(N)c2cc1OC [Example 2, 4-Amino-6,7-dimethoxy-2-[4-(isoxazole-3-carbonyl)-piperazin-1-yl]quinazoline Hydrochloride]
change in vivo at 1 mg/kg [1, 4]: -12%
change in vivo at 3 mg/kg [1, 5]: -26%
change in vivo at 10 mg/kg [1, 6]: -32%

Compound: COc1cc2nc(N3CCN(C(=O)c4ocnc4C)CC3)nc(N)c2cc1OC.Cl [Example 9, 4-Amino-6,7-dimethoxy-2-[4-(4-methyloxazole-5-carbonyl)piperazin-1-yl]quinazoline Hydrochloride]
α-Adrenergic Receptor Blocking Effect In Vitro Activity Ratio [2]: 0.19
change in vivo at 1 mg/kg [1, 4]: -14%
change in vivo at 3 mg/kg [1, 5]: -26%
change in vivo at 10 mg/kg [1, 6]: -41%

α-Adrenergic Receptor Blocking Effect In Vitro Activity Ratio [2]: 0.12
Compound: COc1cc2nc(N3CCN(C(=O)c4cscn4)CC3)nc(N)c2cc1OC [Example 12]
change in vivo at 1 mg/kg [1, 4]: -20%
change in vivo at 3 mg/kg [1, 5]: -24%
change in vivo at 10 mg/kg [1, 6]: -32%

Compound: COc1cc2nc(N3CCN(C(=O)c4cc(C)no4)CC3)nc(N)c2cc1OC.Cl [Example 6, 4-Amino-6,7-dimethoxy-2-[4-(3-methylisoxazole-5-carbonyl)piperazin-1-yl]quinazoline Hydrochloride]
α-Adrenergic Receptor Blocking Effect In Vitro Activity Ratio [2]: 0.25
change in vivo at 1 mg/kg [1, 4]: -18%
change in vivo at 3 mg/kg [1, 5]: -21%
change in vivo at 10 mg/kg [1, 6]: -37%

Compound: COc1cc2nc(N3CCN(C(=O)c4cc(C)on4)CC3)nc(N)c2cc1OC.Cl [Example 4, 4-Amino-6,7-dimethoxy-2-[4-(5-methylisoxazole-3-carbonyl)piperazin-1-yl]quinazoline Hydrochloride]
change in vivo at 1 mg/kg [1, 4]: -14%
change in vivo at 3 mg/kg [1, 5]: -18%
change in vivo at 10 mg/kg [1, 6]: -41%
α-Adrenergic Receptor Blocking Effect In Vivo Activity Ratio [3]: 0.24

Compound: COc1cc2nc(N3CCN(C(=O)c4cncs4)CC3)nc(N)c2cc1OC.Cl [Example 14, 4-Amino-6,7-dimethoxy-2-[4-(thiazole-5-carbonyl)piperazin-1-yl]quinazoline Hydrochloride]
α-Adrenergic Receptor Blocking Effect In Vitro Activity Ratio [2]: 0.10
change in vivo at 1 mg/kg [1, 4]: -12%
change in vivo at 3 mg/kg [1, 5]: -22%
change in vivo at 10 mg/kg [1, 6]: -33%

α-Adrenergic Receptor Blocking Effect In Vitro Activity Ratio [2]: 0.19
Compound: COc1cc2nc(N3CCN(C(=O)c4cnc(C)s4)CC3)nc(N)c2cc1OC [Example 15, 4-Amino-6,7-dimethyoxy-2-[4-(2-methylthiazole-5-carbonyl)piperazin-1-yl]quinazoline Hydrochloride]
change in vivo at 1 mg/kg [1, 4]: -20%
change in vivo at 3 mg/kg [1, 5]: -25%
change in vivo at 10 mg/kg [1, 6]: -37%
α-Adrenergic Receptor Blocking Effect In Vivo Activity Ratio [3]: 0.09

Compound: COc1cc2nc(N3CCN(C(=O)c4nccs4)CC3)nc(N)c2cc1OC [Example 11, 4-Amino-6,7-dimethoxy-2-[4-thiazole-2-carbonyl)piperazin-1-yl]quinazoline Hydrochloride]
change in vivo at 1 mg/kg [1, 4]: -14%
change in vivo at 3 mg/kg [1, 5]: -27%
change in vivo at 10 mg/kg [1, 6]: -33%

Compound: COc1cc2nc(N3CCN(C(=O)c4cnoc4)CC3)nc(N)c2cc1OC.Cl [Example 3, 4-Amino-6,7-dimethoxy-2-[4-(isoxazole-4-carbonyl)-piperazin-1-yl]quinazoline Hydrochloride]
α-Adrenergic Receptor Blocking Effect In Vitro Activity Ratio [2]: 0.92
change in vivo at 1 mg/kg [1, 4]: -13%
change in vivo at 3 mg/kg [1, 5]: -23%
change in vivo at 10 mg/kg [1, 6]: -35%

Compound: COc1cc2nc(N3CCN(C(=O)c4conc4C)CC3)nc(N)c2cc1OC.Cl [Example 5, 4-Amino-6,7-dimethoxy-2-[4-(3-methylisoxazole-4-carbonyl)piperazin-1-yl]quinazoline Hydrochloride]
α-Adrenergic Receptor Blocking Effect In Vitro Activity Ratio [2]: 0.30
change in vivo at 1 mg/kg [1, 4]: -17%
change in vivo at 3 mg/kg [1, 5]: -29%
change in vivo at 10 mg/kg [1, 6]: -33%
α-Adrenergic Receptor Blocking Effect In Vivo Activity Ratio [3]: 0.18

Compound: COc1cc2nc(N3CCN(C(=O)c4ccco4)CC3)nc(N)c2cc1OC [Prazosin, 2-[4-(2-furoyl)-piperazin-1-yl]-4-amino-6,7-dimethoxyquinazoline, reference compound]
change in vivo at 1 mg/kg ([1]; po): -14%
change in vivo at 3 mg/kg ([1]; po): -29%
change in vivo at 10 mg/kg ([1]; po): -42%

Compound: COc1cc2nc(N3CCN(C(=O)c4cocn4)CC3)nc(N)c2cc1OC.Cl [Example 7, 4-Amino-6,7-dimethoxy-2-[4-(oxazole-4-carbonyl)piperazin-1-yl]quinazoline Hydrochloride]
α-Adrenergic Receptor Blocking Effect In Vitro Activity Ratio [2]: 0.6
change in vivo at 1 mg/kg [1, 4]: -15%
change in vivo at 3 mg/kg [1, 5]: -29%
change in vivo at 10 mg/kg [1, 6]: -45%
α-Adrenergic Receptor Blocking Effect In Vivo Activity Ratio [3]: 1.22

α-Adrenergic Receptor Blocking Effect In Vitro Activity Ratio [2]: 0.02
Compound: COc1cc2nc(N3CCN(C(=O)c4csc(C)n4)CC3)nc(N)c2cc1OC [Example 13, 4-Amino-6,7-dimethyoxy-2-[4-(2-methylthiazole-4-carbonyl)piperazin-1-yl]quinazoline Hydrochloride]
change in vivo at 1 mg/kg [1, 4]: -19%
change in vivo at 3 mg/kg [1, 5]: -28%
change in vivo at 10 mg/kg [1, 6]: -28%
"plateauing" dose response effect on blood pressure lowering [1, 7]: maximum blood pressure lowering effect is seen at 3 mg./kg. which could not be increased at higher doses

Compound: COc1cc2nc(N3CCN(C(=O)c4scnc4C)CC3)nc(N)c2cc1OC.Cl [Example 16, 4-Amino-6,7-dimethoxy-2-[4-(4-methylthiazole-5-carbonyl)piperazin-1-yl]quinazoline Hydrochloride]
α-Adrenergic Receptor Blocking Effect In Vitro Activity Ratio [2]: 0.35
change in vivo at 1 mg/kg [1, 4]: -4%
change in vivo at 3 mg/kg [1, 5]: -22%
change in vivo at 10 mg/kg [1, 6]: -28%

Compound: COc1cc2nc(N3CCN(C(=O)c4cnsc4)CC3)nc(N)c2cc1OC.Cl [Example 10, 4-Amino-6,7-dimethoxy-2-[4-(isothiazole-4-carbonyl)piperazin-1-yl)quinazoline Hydrochloride]
change in vivo at 1 mg/kg [1, 4]: -14%
change in vivo at 3 mg/kg [1, 5]: -23%
change in vivo at 10 mg/kg [1, 6]: -25%
"plateauing" dose response effect on blood pressure lowering [1, 7]: maximum blood pressure lowering effect is seen at 3 mg./kg. which could not be increased at higher doses

Compound: COc1cc2nc(N3CCN(C(=O)c4coc(C)n4)CC3)nc(N)c2cc1OC.Cl [Example 8, 4-Amino-6,7-dimethoxy-2-[4-(2-methyloxazole-4-carbonyl)piperazin-1-yl]quinazoline Hydrochloride]
α-Adrenergic Receptor Blocking Effect In Vitro Activity Ratio [2]: 0.17
change in vivo at 1 mg/kg [1, 4]: -13%
change in vivo at 3 mg/kg [1, 5]: -31%
change in vivo at 10 mg/kg [1, 6]: -35%

α-Adrenergic Receptor Blocking Effect In Vitro Activity Ratio [2]: 0.11
Compound: COc1cc2nc(N3CCN(C(=O)c4ccno4)CC3)nc(N)c2cc1OC [Example 1, 4-Amino-6,7-dimethyoxy-2-[4-(isoxazole-5-carbonyl)-piperazine-1-yl]quinazoline Hydrochloride]
change in vivo at 1 mg/kg [1, 4]: -15%
change in vivo at 3 mg/kg [1, 5]: -26%
change in vivo at 10 mg/kg [1, 6]: -35%
α-Adrenergic Receptor Blocking Effect In Vivo Activity Ratio [3]: 0.18
